Measured values: BindingDB's records for doi:10.1016/s0960-894x(99)00210-3 (Tartu University, 1999)

Experiment: Inhibitory activity against Protein kinase C beta isoform (PKC) from pig spleen.

Q: With `N=C(N)NCCC[C@H](NC(=O)[C@H](CCCNC(=N)N)NC(=O)[C@H](CCCNC(=N)N)NC(=O)[C@H](CCCNC(=N)N)NC(=O)[C@H](CCCNC(=N)N)NC(=O)[C@H](CCCNC(=N)N)NC(=O)CCNC(=O)[C@H]1OC(n2cnc3c(N)ncnc32)[C@H](O)[C@@H]1O)C(=O)O` (stereo partly specified) as the compound, how does the IC50 read?
A: 3 µM

Q: With `N=C(N)NCCC[C@H](NC(=O)[C@H](CCCNC(=N)N)NC(=O)[C@H](CCCNC(=N)N)NC(=O)[C@H](CCCNC(=N)N)NC(=O)[C@H](CCCNC(=N)N)NC(=O)[C@H](CCCNC(=N)N)NC(=O)CCCNC(=O)[C@H]1OC(n2cnc3c(N)ncnc32)[C@H](O)[C@@H]1O)C(=O)O` (stereo partly specified) as the compound, how does the IC50 read?
A: 1.5 µM

Q: With `C[C@H](NC(=O)C[C@H](NC(=O)C[C@H](NC(=O)[C@H]1O[C@@H](n2cnc3c(N)ncnc32)[C@H](O)[C@@H]1O)C(=O)O)C(=O)O)C(=O)N[C@@H](CCCNC(=N)N)C(=O)N[C@@H](CCCNC(=N)N)C(=O)N[C@@H](CCCNC(=N)N)C(=O)N[C@@H](CCCNC(=N)N)C(=O)N[C@@H](CCCNC(=N)N)C(=O)N[C@@H](CCCNC(=N)N)C(=O)O` as the compound, how does the IC50 read?
A: 27 µM

Q: Which IC50 does the source give for `N=C(N)NCCC[C@H](NC(=O)[C@H](CCCNC(=N)N)NC(=O)[C@H](CCCNC(=N)N)NC(=O)[C@H](CCCNC(=N)N)NC(=O)[C@H](CCCNC(=N)N)NC(=O)[C@H](CCCNC(=N)N)NC(=O)CNC(=O)[C@H]1OC(n2cnc3c(N)ncnc32)[C@H](O)[C@@H]1O)C(=O)O` (stereo partly specified) here?
A: 10 µM

Q: For `C[C@H](NC(=O)CCNC(=O)CCNC(=O)[C@H]1OC(n2cnc3c(N)ncnc32)[C@H](O)[C@@H]1O)C(=O)N[C@@H](CCCNC(=N)N)C(=O)N[C@@H](CCCNC(=N)N)C(=O)N[C@@H](CCCNC(=N)N)C(=O)N[C@@H](CCCNC(=N)N)C(=O)N[C@@H](CCCNC(=N)N)C(=O)N[C@@H](CCCNC(=N)N)C(=O)O` (stereo partly specified), which IC50 is on record?
A: 2.8 µM

Q: With `CC(=O)NCCCCCC(=O)N[C@@H](CCCN=C(N)N)C(=O)N[C@@H](CCCNC(=N)N)C(=O)N[C@@H](CCCNC(=N)N)C(=O)N[C@@H](CCCNC(=N)N)C(=O)N[C@@H](CCCNC(=N)N)C(=O)N[C@@H](CCCN=C(N)N)C(=O)O` [(R)-2-{(R)-2-[2-((R)-2-{(R)-2-[2-(6-Acetylamino-hexanoylamino)-5-guanidino-pentanoylamino]-5-guanidino-pentanoylamino}-5-guanidino-pentanoylamino)-5-guanidino-pentanoylamino]-5-guanidino-pentanoylamino}-5-guanidino-pentanoic acid] as the compound, how does the IC50 read?
A: > 100 µM
